Data as given in US9486502B2, “Methods of administering interferon gamma to absorb fluid from the subretinal space” (The United States of America, as represented by the …, priority 2008, dated 2016).
Where a name gives a salt, the structure may show the parent alone.

Tested on: hfRPE monolayers
Experiment: fluid transport (JV, TEP, RT) across hfRPE monolayers in modified Üssing chamber
Assay type: cell-based, human
Excerpt: Confluent monolayers of hfRPE cultured on transwells were mounted in a modified Üssing chamber and transepithelial water flow measurements (JV) were made with a capacitance probe technique as described previously in Maminishkis, A., et al., Invest Ophthalmol Vis Sci, 2006, 47, 3612-3624; Shi, G., et al., Invest Ophthalmol Vis Sci, 2008, 49, 4620-4630; Edelman, J. L., et al., Invest Ophthalmol Vis Sci, 1991, 32, 3033-3040; Jiang, C., et al., Science, 1993, 262, 424-427; and Maminishkis, A., et al., Invest Ophthalmol Vis Sci, 2002, 43, 3555-3566, each incorporated herein by reference in its entirety.
Tissue viability was ascertained by recording transepithelial potential (TEP) and total tissue resistance (RT). It should be noted that the solution composition changes in this chamber were relatively slow (≈1-2 chamber volumes per minute) and the data sampling rate was once per minute, more than two orders of magnitude slower than the sampling rate in the electrophysiology chamber (see below). Therefore it was not possible to record fast changes, in seconds or minutes, in JV, TEP, or RT. After addition of IFNγ to the apical or basal baths, steady-state JV, TEP, and RT were recorded for 20-30 minutes. In control experiments, successive additions of IFNγ were made to test for the repeatability and reversibility of responses. To block IFNγ effects, RPE cells were incubated for 30-60 minutes with a blocking antibody against IFNγ R1, JAK inhibitor I, PKA inhibitors (H-89, EMD Biosciences; RP-8-Br-cAMPS, Sigma-Aldrich), nitric oxide synthase inhibitor (aminoguanidine hydrochloride, Sigma-Aldrich), P38 MAPK inhibitors (SB203580 or SB20290), or CHX. Other components of this signaling pathway were studied using P38 MAPK inhibitors (SB203580 and SB202190). Relatively specific Cl channel inhibitors, CFTRinh-172 or DIDS (EMD Biosciences, La Jolla, Calif.), were used to block cAMP or Ca^2+-activated Cl channels; experiments with CFTRinh-172 were performed as described in Muanprasat, C., et al., J Gen Physiol, 2004, 124, 125-137, incorporated herein by reference in its entirety. In chronic experiments, paired hfRPE tissues with matched RT values were incubated for 4-24 hours with IFNγ or CHX. The subsequent changes in JV, RT, and TEP were measured in Ringer's solution or serum free cell culture media as previously described in Shi, G., et al., Invest Ophthalmol Vis Sci, 2008 and Maminishkis, A., et al., Invest Ophthalmol Vis Sci, 2006, 47, 3612-3624, each incorporated herein by reference in its entirety. Intracellular levels of NO were elevated with 1-Hydroxy-2-oxo-3-(3-aminopropyl)-3-isopropyl-1-triazene (NOC-5, Enzo Life Sciences, Plymouth, Pa.). 8-Br-cGMP was purchased from Sigma-Aldrich.

[1] = H-89 40 μM pre-treatment 30 minutes
[2] = SB203580 pretreatment ≧30 minutes, n=6

O=S(=O)(NCCNC/C=C/c1ccc(Br)cc1)c1cccc2cnccc12 [H-89]
effect on IFNγ stimulated JV increase (H-89 40 μM after IFNγ): significantly blocked | JV after H-89 added to IFNγ-stimulated hfRPE (H-89 40 μM both sides, from 20.1±0.2): 8.3±1.3 μl·cm^−2·hr^−1 | effect on baseline level of JV [1]: no significant effect | effect on the effect of IFNγ [1]: completely blocked | JV after H-89 (four experiments, steady-state baseline 12.8±5.2): 12.9±3.7 μl·cm^−2·hr^−1

CC(C)N(CCCN)[N+]([O-])=NO [NOC-5, 1-Hydroxy-2-oxo-3-(3-aminopropyl)-3-isopropyl-1-triazene]
effect on JV (NOC-5 apical and basal baths, n=3): more than doubled

Oc1ccc(-c2nc(-c3ccncc3)c(-c3ccc(F)cc3)[nH]2)cc1 [SB202190]
block of IFNγ stimulated fluid transport (SB202190 1-5 μM): approximately 46%

C[S+]([O-])c1ccc(-c2nc(-c3ccncc3)c(-c3ccc(F)cc3)[nH]2)cc1 (stereo not drawn) [SB203580]
decrease of IFNγ-induced JV (SB203580 5 μM): approximately 62% | effect on IFNγ induced JV (SB 203580 5 μM apical and basal after IFNγ 5 ng/mL, n=9): decreased | effect on JV following inhibition by basal bath CFTRinh−172 (SB203580, n=3): no further effect | effect on baseline level of JV [2]: no significant effect | effect on the effect of IFNγ [2]: completely blocked

N=C(N)NN [aminoguanidine hydrochloride]
effect on IFNγ induced increase in Jv (iNOS inhibitor 100 μM applied after IFNγ 5 ng/ml, n=3, hydrochloride): blocks | effect on IFNγ induced increase in Jv (iNOS inhibitor 100 μM applied after IFNγ 5 ng/ml, n=3, listed as aminoguandidie hydrochloride, hydrochloride): block | effect on IFNγ induced increase in Jv (pre-treatment with iNOS inhibitor, n=3): completely blocked
